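The compound was tested at five concentrations on cells cultured in 96-well plates, with a 48-hour exposure period. GI50 is the concentration that inhibits growth by half.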 Calls of active or inactive are those of the source. No stated cut-off is given here; in the data, active = GI50 up to about 1.1 µM and inactive = higher.
Tests used:
Assay in all cases: growth of human tumour cells (NCI), 48 h
LOX IMVI = tested on: LOX IMVI
CAKI-1 = tested on: CAKI-1
HCT-116 = tested on: HCT-116
NCI-H522 = tested on: NCI-H522
HL-60 = tested on: HL-60
Malme-3M = tested on: Malme-3M
SF-539 = tested on: SF-539
SK-OV-3 = tested on: SK-OV-3
A549 = tested on: A549
ACHN = tested on: ACHN
COLO 205 = tested on: COLO 205
HOP-92 = tested on: HOP-92
CCRF-CEM = tested on: CCRF-CEM
K562 = tested on: K562
NCI-H226 = tested on: NCI-H226
UACC-257 = tested on: UACC-257
OVCAR-5 = tested on: OVCAR-5
786-0 = tested on: 786-0
MDA-MB-231 = tested on: MDA-MB-231
SK-MEL-2 = tested on: SK-MEL-2
KM12 = tested on: KM12
MDA-MB-435 = tested on: MDA-MB-435
EKVX = tested on: EKVX
OVCAR-4 = tested on: OVCAR-4
SW-620 = tested on: SW-620
MOLT-4 = tested on: MOLT-4
RPMI-8226 = tested on: RPMI-8226
Hs-578T = tested on: Hs-578T
UO-31 = tested on: UO-31
SK-MEL-28 = tested on: SK-MEL-28
T47D = tested on: T47D
HCT-15 = tested on: HCT-15
UACC-62 = tested on: UACC-62
SK-MEL-5 = tested on: SK-MEL-5
DU-145 = tested on: DU-145
SNB-75 = tested on: SNB-75
NCI-H23 = tested on: NCI-H23
SF-295 = tested on: SF-295
PC-3 = tested on: PC-3
HCC 2998 = tested on: HCC 2998
MCF7 = tested on: MCF7
TK-10 = tested on: TK-10
SR = tested on: SR
OVCAR-8 = tested on: OVCAR-8
SF-268 = tested on: SF-268
HT-29 = tested on: HT-29
HOP-62 = tested on: HOP-62
SNB-19 = tested on: SNB-19
M14 = tested on: M14
BT-549 = tested on: BT-549
RXF 393 = tested on: RXF 393
OVCAR-3 = tested on: OVCAR-3
IGROV-1 = tested on: IGROV-1
SN12C = tested on: SN12C
MDA-N = tested on: MDA-N
NCI/ADR-RES = tested on: NCI/ADR-RES
U-251 = tested on: U-251
NCI-H460 = tested on: NCI-H460

In the case of `CC(=O)O[C@@]12[C@@H]3O[C@@]4(O)C[C@]5(C)[C@H]6C[C@@](C(C)C)(O[C@H]5c5ccoc5)O[C@H]1[C@]6(C4)O[C@]2(O)C(C)=CC3(C)C`, the GI50 (LOX IMVI) is reported as > 100 µM (inactive), the GI50 (CAKI-1) is reported as > 100 µM (inactive) and the GI50 (HCT-116) is reported as > 100 µM (inactive). The GI50 (NCI-H522) was 78.5 µM (inactive), the GI50 (HL-60) was > 100 µM (inactive) and the GI50 (Malme-3M) was > 100 µM (inactive). The GI50 (SF-539) was > 100 µM (inactive), the GI50 (SK-OV-3) was > 100 µM (inactive) and the GI50 (A549) was > 100 µM (inactive). The GI50 (ACHN) was > 100 µM (inactive), the GI50 (COLO 205) was > 100 µM (inactive) and the GI50 (HOP-92) was > 100 µM (inactive). For the same molecule, the GI50 (CCRF-CEM) was > 100 µM (inactive), the GI50 (K562) was > 100 µM (inactive) and the GI50 (NCI-H226) was > 100 µM (inactive). The GI50 (UACC-257) was > 100 µM (inactive), the GI50 (OVCAR-5) was > 100 µM (inactive) and the GI50 (786-0) was 64.4 µM (inactive). For the same molecule, the GI50 (MDA-MB-231) was > 100 µM (inactive), the GI50 (SK-MEL-2) was > 100 µM (inactive) and the GI50 (KM12) was > 100 µM (inactive). For the same molecule, the GI50 (MDA-MB-435) was > 100 µM (inactive), the GI50 (EKVX) was > 100 µM (inactive) and the GI50 (OVCAR-4) was > 100 µM (inactive). For the same molecule, the GI50 (SW-620) was > 100 µM (inactive), the GI50 (MOLT-4) was > 100 µM (inactive) and the GI50 (RPMI-8226) was > 100 µM (inactive). The GI50 (Hs-578T) was > 100 µM (inactive), the GI50 (UO-31) was > 100 µM (inactive) and the GI50 (SK-MEL-28) was > 100 µM (inactive). For the same molecule, the GI50 (T47D) was > 100 µM (inactive), the GI50 (HCT-15) was greater than 100 µM and the GI50 (UACC-62) was > 100 µM (inactive). For the same molecule, the GI50 (SK-MEL-5) was > 100 µM (inactive), the GI50 (DU-145) was > 100 µM (inactive) and the GI50 (SNB-75) was 75.9 µM (inactive). The GI50 (NCI-H23) was > 100 µM (inactive), the GI50 (SF-295) was > 100 µM (inactive) and the GI50 (PC-3) was > 100 µM (inactive). For the same molecule, the GI50 (HCC 2998) was > 100 µM (inactive), the GI50 (MCF7) was > 100 µM (inactive) and the GI50 (TK-10) was > 100 µM (inactive). The GI50 (SR) was > 100 µM (inactive), the GI50 (OVCAR-8) was > 100 µM (inactive) and the GI50 (SF-268) was > 100 µM (inactive). The GI50 (HT-29) was > 100 µM (inactive), the GI50 (HOP-62) was > 100 µM (inactive) and the GI50 (SNB-19) was 63.2 µM (inactive). For the same molecule, the GI50 (M14) was > 100 µM (inactive), the GI50 (BT-549) was > 100 µM (inactive) and the GI50 (RXF 393) was > 100 µM (inactive). For the same molecule, the GI50 (OVCAR-3) was > 100 µM (inactive), the GI50 (IGROV-1) was > 100 µM (inactive) and the GI50 (SN12C) was > 100 µM (inactive). For the same molecule, the GI50 (MDA-N) was > 100 µM (inactive), the GI50 (NCI/ADR-RES) was > 100 µM (inactive) and the GI50 (U-251) was > 100 µM (inactive).

With `COC(=O)C(Cc1ccccc1)OC(=O)C(N)CC(=O)O` (stereo not given) the GI50 (CAKI-1) was > 100 µM (inactive), the GI50 (HCT-116) was > 100 µM (inactive) and the GI50 (NCI-H522) was > 100 µM (inactive). The GI50 (Malme-3M) was > 100 µM (inactive), the GI50 (SF-539) was > 100 µM (inactive) and the GI50 (SK-OV-3) was > 100 µM (inactive). The GI50 (A549) was > 100 µM (inactive), the GI50 (ACHN) was > 100 µM (inactive) and the GI50 (NCI-H460) was > 100 µM (inactive). For the same molecule, the GI50 (COLO 205) was > 100 µM (inactive), the GI50 (HOP-92) was > 100 µM (inactive) and the GI50 (K562) was > 100 µM (inactive). The GI50 (NCI-H226) was > 100 µM (inactive), the GI50 (UACC-257) was 32.4 µM (inactive) and the GI50 (OVCAR-5) was > 100 µM (inactive). The GI50 (786-0) was > 100 µM (inactive), the GI50 (MDA-MB-231) was > 100 µM (inactive) and the GI50 (SK-MEL-2) was > 100 µM (inactive). For the same molecule, the GI50 (MDA-MB-435) was 17.1 µM (inactive), the GI50 (EKVX) was > 100 µM (inactive) and the GI50 (SW-620) was > 100 µM (inactive). The GI50 (MOLT-4) was > 100 µM (inactive), the GI50 (RPMI-8226) was > 100 µM (inactive) and the GI50 (Hs-578T) was > 100 µM (inactive). For the same molecule, the GI50 (UO-31) was > 100 µM (inactive), the GI50 (SK-MEL-28) was > 100 µM (inactive) and the GI50 (T47D) was > 100 µM (inactive). The GI50 (HCT-15) was greater than 100 µM, the GI50 (UACC-62) was > 100 µM (inactive) and the GI50 (SK-MEL-5) was > 100 µM (inactive). For the same molecule, the GI50 (DU-145) was > 100 µM (inactive), the GI50 (SNB-75) was < 0.01 µM (active) and the GI50 (NCI-H23) was 5.11 µM (inactive). The GI50 (SF-295) was > 100 µM (inactive), the GI50 (PC-3) was > 100 µM (inactive) and the GI50 (HCC 2998) was > 100 µM (inactive). For the same molecule, the GI50 (MCF7) was > 100 µM (inactive), the GI50 (TK-10) was > 100 µM (inactive) and the GI50 (SR) was > 100 µM (inactive). The GI50 (OVCAR-8) was > 100 µM (inactive), the GI50 (SF-268) was > 100 µM (inactive) and the GI50 (HT-29) was > 100 µM (inactive). For the same molecule, the GI50 (HOP-62) was > 100 µM (inactive), the GI50 (SNB-19) was > 100 µM (inactive) and the GI50 (M14) was > 100 µM (inactive). For the same molecule, the GI50 (BT-549) was > 100 µM (inactive), the GI50 (RXF 393) was > 100 µM (inactive) and the GI50 (OVCAR-3) was > 100 µM (inactive). The GI50 (IGROV-1) was > 100 µM (inactive), the GI50 (SN12C) was > 100 µM (inactive) and the GI50 (MDA-N) was > 100 µM (inactive). The GI50 (NCI/ADR-RES) was > 100 µM (inactive).

In the case of `COc1ccc(/C=C(\C#N)c2nc3ccccc3c(=O)[nH]2)cc1`, the GI50 (LOX IMVI) is reported as 43.4 µM (inactive), the GI50 (CAKI-1) is reported as 27.8 µM (inactive) and the GI50 (HCT-116) is reported as 5.22 µM (inactive). The GI50 (NCI-H522) was 10.6 µM (inactive), the GI50 (HL-60) was > 100 µM (inactive) and the GI50 (Malme-3M) was > 100 µM (inactive). For the same molecule, the GI50 (SF-539) was 12.6 µM (inactive), the GI50 (SK-OV-3) was 11.3 µM (inactive) and the GI50 (A549) was 45.9 µM (inactive). The GI50 (ACHN) was 17.1 µM (inactive), the GI50 (NCI-H460) was 16.6 µM (inactive) and the GI50 (COLO 205) was 73.6 µM (inactive). For the same molecule, the GI50 (HOP-92) was 12.1 µM (inactive), the GI50 (CCRF-CEM) was > 100 µM (inactive) and the GI50 (K562) was > 100 µM (inactive). For the same molecule, the GI50 (NCI-H226) was 27 µM (inactive), the GI50 (UACC-257) was 68.7 µM (inactive) and the GI50 (OVCAR-5) was > 100 µM (inactive). The GI50 (786-0) was 13.9 µM (inactive), the GI50 (MDA-MB-231) was 4.84 µM (inactive) and the GI50 (SK-MEL-2) was 27.3 µM (inactive). The GI50 (KM12) was 51.5 µM (inactive), the GI50 (MDA-MB-435) was > 100 µM (inactive) and the GI50 (EKVX) was 59.6 µM (inactive). For the same molecule, the GI50 (OVCAR-4) was 20.3 µM (inactive), the GI50 (SW-620) was 50.4 µM (inactive) and the GI50 (MOLT-4) was > 100 µM (inactive). For the same molecule, the GI50 (RPMI-8226) was > 100 µM (inactive), the GI50 (Hs-578T) was 15.1 µM (inactive) and the GI50 (UO-31) was 26.5 µM (inactive). For the same molecule, the GI50 (SK-MEL-28) was > 100 µM (inactive), the GI50 (T47D) was 20.6 µM (inactive) and the GI50 (HCT-15) was 54.5 µM. The GI50 (UACC-62) was 18.4 µM (inactive), the GI50 (SK-MEL-5) was 19.5 µM (inactive) and the GI50 (DU-145) was 23.1 µM (inactive). The GI50 (SNB-75) was 23.9 µM (inactive), the GI50 (SF-295) was 20.5 µM (inactive) and the GI50 (PC-3) was 38.7 µM (inactive). For the same molecule, the GI50 (HCC 2998) was 49.5 µM (inactive), the GI50 (MCF7) was 34.4 µM (inactive) and the GI50 (TK-10) was 23.3 µM (inactive). For the same molecule, the GI50 (SR) was 39.4 µM (inactive), the GI50 (OVCAR-8) was 10.6 µM (inactive) and the GI50 (SF-268) was 13.7 µM (inactive). For the same molecule, the GI50 (HT-29) was > 100 µM (inactive), the GI50 (HOP-62) was 10.5 µM (inactive) and the GI50 (SNB-19) was 12.9 µM (inactive). The GI50 (M14) was 30 µM (inactive), the GI50 (BT-549) was 15.5 µM (inactive) and the GI50 (RXF 393) was 15.5 µM (inactive). The GI50 (IGROV-1) was 30.3 µM (inactive), the GI50 (SN12C) was 33.6 µM (inactive) and the GI50 (MDA-N) was > 100 µM (inactive). The GI50 (NCI/ADR-RES) was 20.3 µM (inactive) and the GI50 (U-251) was 9.42 µM (inactive).

From ChEMBL document CHEMBL1201862, “PubChem BioAssay data set” (2004)
